Data as given in PMC13503280, “A pharmacological modality to sequester homomeric proteins” (Nature Chemical Biology, 2026).
Each block holds one compound with its values, some of them ahead of it.

Columns and labels:
Keap1 = Keap1 (Homo sapiens, UniProt Q14145); test: WB of Keap1 in HEK 293 cells (hetero-PINCH); type: cell-based; design: endogenous in cells; host or cells: HEK 293 (ATCC CRL-1573); settings: HEK 293 cells (does not express BCL6), 20 h
Method: (§1) Cells were incubated with DMSO at 0.1% or with compound in concentrations ranging 10–20,000 nM for 20 h unless indicated differently. Following incubation, lysis was performed in RIPA buffer and the samples were measured for total protein quantification by BCA assay (Thermo Fisher Scientific, 23225). Then, 20–40 μg of each sample was loaded and run on an SDS–PAGE gel, before transferring onto a nitrocellulose membrane using a Trans-Blot Turbo system (Bio-Rad) and blocking using a 5% BSA in TBS-T (w/v) solution for 1 h at room temperature. Incubation with primary antibodies (mouse anti-BCL-6 (sc-7388, Santa Cruz, 1:500; overnight at 4 °C), mouse anti-Keap1 (sc-365626, Santa Cruz, 1:500; overnight at 4 °C), rabbit anti-LDHA (4H18L6, Thermo Fisher, 1:1,000; overnight at 4 °C), mouse anti-NQO2 (sc-271665, Santa Cruz, 1:500; overnight at 4 °C), rabbit anti-c-Myc (5605, Cell Signaling, 1:1,000; overnight at 4 °C) and mouse anti-β-actin (3700, Cell Signaling, 1:1,000; 1 h at room temperature) was performed and then the membranes were washed and incubated with a horseradish-peroxidase-conjugated secondary antibody (mouse 7076/rabbit 7074, Cell Signaling) at room temperature for 1 h. Imaging of the chemiluminescence signal was performed using a ChemiDoc XRS+ instrument (Bio-Rad). Primary band quantifications were normalized against β-actin bands.

Keap1 and BCL6 [1] = target: T1, Keap1 and BCL6 (Homo sapiens, UniProt P41182+Q14145); test: WB of Keap1 and BCL6 in Mino cells (hetero-PINCH); type: cell-based; design: Mino cells that express high levels of BCL6; endogenous in cells; host or cells: Mino; OCI-AML2; settings: 20 h
Method: as §1

Keap1 and BCL6 [2] = target: T1, Keap1 and BCL6; test: WB of Keap1 and BCL6 in OCI-AML2 cells (hetero-PINCH); type: cell-based; design: endogenous in cells; host or cells: OCI-AML2; settings: 20 h
Method: as §1

LDHA [3] = target: T2, LDHA (Homo sapiens, UniProt P00338); test: Immunostaining of LDHA in U2OS cells; type: cell-based; design: endogenous in cells; host or cells: U2OS (ATCC HTB-96); settings: 5µM, 20 hours
Method: For spinning disk confocal microscopy, cells were allowed to adhere to a 14-mm glass-bottom plate (MatTek P35G-1.5-14-C), followed by fixation with 3.7% formaldehyde for 5 min and permeabilization with 0.1% Triton X-100 for 10 min. The cells were then blocked with 5% BSA for 60 min at room temperature. Cells were stained with primary antibody, at a concentration of 1:100, for 3 h at room temperature and were then subjected to a secondary antibody conjugated to Alexa Fluor, at a concentration of 1:100–500, for 1 h at room temperature. Lastly, cells were also stained with DAPI for 10 min at room temperature.

LDHA [4] = target: T2, LDHA; test: DLS of recombinant LDHA; type: biochemical; design: The gene encoding full-length WT human LDHA was cloned into pET28; His6 tag followed by a tobacco etch virus protease cleavage site (N); made in house; host or cells: Escherichia coli BL21(DE3); settings: room temperature, over time
Method: DLS samples were prepared in the respective protein’s elution buffer, to which 0.01% Tween was added, along with the compound from a DMSO stock to obtain a final DMSO concentration of 2%. Samples were prepared at room temperature and measured at a constant temperature of 25 °C. All samples were passed through 0.1-μm filters and then placed in a clear-bottom black 384-well plate. DLS data were recorded using a DynaproPlate Reader III (Wyatt Technology). Data were processed with the supplied DYNAMICS software.

HEK 293 cells = test: Viability measurements, HEK 293 cells; type: cell-based; settings: HEK 293 cells (lack BCL6 expression), 72 h
Method: Cells were seeded in a transparent-bottom, black 96-well plate, at 15,000 cells per well in sixfold replications. in 90 µl of medium and left to adhere for at least 4 h. The cells were then treated with the respective compound by adding 10 µl of medium–-compound mixture for a final volume of 100 µl in each well. Cell-Titer blue reagent was used to measure viability according to the manufacturer’s instructions. Plate reader measurements were performed on a Tecan Spark Control 10 M fluorescence system.

BCL6(1–275)–GFP = target: T3, BCL6(1–275)–GFP (Homo sapiens, UniProt P41182); test: BCL6(1–275)–GFP puncta in HEK 293 cells; type: cell-based; settings: HEK 293 cells overexpressing BCL6(1–275)–GFP
T3 construct: HEK 293 cells expressing GFP fused to BCL6 (residues 1–275); host or cells: HEK 293
Method: Automatic aggregate segmentation was conducted using the surface module with manual threshold fixed for all images of the same experiment (default 2-pixel smoothing, background subtraction with 0.9-μm largest sphere, morphological split with 0.5-μm seed point diameter). Analysis was conducted per cell by manually selecting regions covering the individual cell and not overlapping with neighboring cells.

[5] = target: T4, recombinant BCL6 BTB domain (Homo sapiens, UniProt P41182); test: Intact protein LC–MS labeling of BCL6 BTB domain; type: binding; settings: 2 μM protein, 10 μM compound, incubation 90 min
T4 construct: The BCL6 BTB domain (5–129) was cloned into the pET28-bdSumo vector; His–bdSumo (N, cleaved yes); made in house; host or cells: E. coli BL21(DE3) (as described for Keap1 BTB)
Excerpt: A covalent inhibitor of BCL6 that irreversibly binds a tyrosine residue in the BTB domain dimeric interface was previously reported. […] Importantly, the linker had to be long enough to minimize potential steric clashes between bridged homodimers yet short enough to forbid intramolecular binding of subunits from the same homodimer.
Extended Data Fig. 1 SAR of BCL6 targeting PINCHs. a. […] Representative results from 3 independent experiments, and c. These compounds’ structures. Source data

Sequence of Keap1 (Q14145 whole entry): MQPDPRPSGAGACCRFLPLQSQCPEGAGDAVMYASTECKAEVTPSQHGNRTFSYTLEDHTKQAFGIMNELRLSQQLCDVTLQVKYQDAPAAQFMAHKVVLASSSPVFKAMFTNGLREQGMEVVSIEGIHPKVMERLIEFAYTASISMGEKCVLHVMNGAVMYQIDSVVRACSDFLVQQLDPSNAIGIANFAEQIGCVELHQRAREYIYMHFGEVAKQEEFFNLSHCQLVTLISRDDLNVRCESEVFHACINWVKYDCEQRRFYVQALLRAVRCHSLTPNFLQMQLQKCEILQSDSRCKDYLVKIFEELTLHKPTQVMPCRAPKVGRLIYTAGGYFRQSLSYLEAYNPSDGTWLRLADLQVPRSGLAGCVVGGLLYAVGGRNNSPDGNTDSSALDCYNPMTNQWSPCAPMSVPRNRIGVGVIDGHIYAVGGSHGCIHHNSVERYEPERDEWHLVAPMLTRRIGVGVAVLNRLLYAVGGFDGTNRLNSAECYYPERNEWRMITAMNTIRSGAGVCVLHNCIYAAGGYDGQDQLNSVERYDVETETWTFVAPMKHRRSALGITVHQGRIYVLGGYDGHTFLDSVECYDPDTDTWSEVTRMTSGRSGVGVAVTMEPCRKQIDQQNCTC

Compound: COc1cc(Nc2cc(NCc3cccc(S(=O)(=O)F)c3)ccc2Cl)cc2cc(OCC(=O)NCCOCCOCCOCCOCCOCCOCCOCCOCCOCCOCCOCCOCCNC(=O)[C@]34CCC(C)(C)C[C@H]3[C@H]3C(=O)C=C5[C@@]6(C)C=C(C#N)C(=O)C(C)(C)[C@@H]6CC[C@@]5(C)[C@]3(C)CC4)c(=O)n(C)c12 [EL230]
- Keap1 level (WB) (Keap1): Keap1 remained unchanged
- Keap1 and BCL6 levels in soluble/insoluble phase (WB) (Keap1 and BCL6 [1]): reduction in both Keap1 and BCL6 levels in the soluble phase
- Keap1 and BCL6 levels (WB) (Keap1 and BCL6 [2]): Keap1 and BCL6 were downregulated simultaneously

- LDHA localization (immunostaining) (LDHA [3]): no effect on LDHA localization
- formation of larger species (DLS) (LDHA [4]): formation of larger species over time
Compound: Cc1nc2ccc(NC(=O)CC(NC(=O)CCCc3ccc(CC(C(=O)O)C(=O)O)cc3)C(=O)NCCOCCOCCOCCOCCNC(=O)C(CC(=O)Nc3ccc4nc(C)sc4c3)NC(=O)CCCc3ccc(CC(C(=O)O)C(=O)O)cc3)cc2s1 (centres unmarked) [OS-47B]

Compound: CNC(=O)COc1cc2cc(Nc3cc(NCc4cccc(S(=O)(=O)F)c4)ccc3Cl)cc(OC)c2n(C)c1=O [w8001]
- effect on viability (HEK 293 cells): no compound affected the viability
- BCL6–GFP puncta formation (BCL6(1–275)–GFP): no such puncta
- labeling of recombinant BCL6 BTB domain by intact protein LC–MS [5]: 100%
